The subject of data set [1] is naturally occurring CD4+ CD25+ Treg cells. Description: Reversal of suppressive function of naturally occurring CD4+CD25+ Treg cells (proliferation assay). It is filed as cell-based. The settings on record: sorted from fresh human PBMCs; anti-CD3-coated wells. From the text: Establishing Treg cell lines and purifying natural CD4^+ CD25^+ Treg cells CD4^+ Treg clones were established from CD4^+ tumor-infiltrating lymphocytes (TIL102 and TIL164) and maintained in RPMI 1640 medium containing 10% human AB serum and recombinant IL-2 (300 IU/ml) using methods well known in the art (See, e.g., H. Y. Wang et al., Immunity 20, 107-118 (2004)). Treg clones derived from TIL102 or TIL164 cells were pooled and designated Treg102 or Treg164. Naturally occurring CD4^+ CD25^+ Treg cells were obtained by sorting CD4^+ T cell populations from fresh PBMCs after staining with anti-CD4 and anti-CD25 antibodies. To obtain optimal expansion, the OKT3 expansion method was performed using methods well known in the art (See, e.g., H. Y. Wang et al., Immunity 20, 107-118 (2004)). T cell clones were maintained at a low IL-2 concentration (300 IU/ml). […]
The expression of CD4, CD25 and GITR on Treg cells was determined by FACS analysis after staining with specific antibodies (purchased from R&D Systems and BD Biosciences). […] After 3 days in culture, the cells were analyzed by FACS gating on the CFSE-labeled cells. […]
FIG. 2E: Both CD4^+ CD25^+ and CD25^− T cells were sorted after staining of freshly isolated human CD4^+ T cells with anti-CD4 and anti-CD25 antibodies. The purity of the sorted T cells was determined by FACS. […]

The subject of data set [2] is antigen-specific Treg102 and Treg164 cells. Description: TLR ligand assays: reversal of Treg suppression of naive CD4+ T cell proliferation. It is filed as cell-based, human. As for the experimental part:
Näive CD4 T+cells were purified from PBMCs by using microbeads (Miltenvi Biotec). Näive CD4^+ T cells ([…]) were cultured with regulatory T cells at a ratio of 10:1 in OKT3 (2 ug/ml)-coated, U bottomed 96-well plates containing the following ligands: LPS (100 ng/ml), imiquimod (10 μg/ml), loxoribine (500 μM), poly(I:C) (25 μg/ml), ssRNA40/LyoVec (3 μg/ml), ssRNA33/LyoVec (3 μg/ml), pam3CSK4 (200 ng/ml) and flagellin (10 μg/ml) were purchased from Invivogene (San Diego, Calif.), while CpG-A (3 μg/ml), CpG-B (3 μg/ml) and Poly-G oligonucleotides (3 μg/ml) were synthesized in Integrated DNA Technologies, Inc (Coralville, Iowa). Functional assays were identical to those described above.
If the TLR8-MyD88-IRAK4 signaling pathway is necessary and sufficient for direct reversal of the suppressive function of Treg cells, it should be possible to produce that effect with natural ligands for human TLR8. For FIG. 4A-B, naive CD4^+ T cells were mixed with Treg102, Treg164 or naturally occurring CD4^+ CD25^+ Treg cells in anti-CD3 antibody-coated wells in the presence of different TLR ligands. Data are presented as means±SD and represent results from three independent experiments.

Data set [3] relates to CD4+ Treg cells (Treg102, Treg164). In words: Proliferation assay with dendritic cells: Treg suppression of naive CD4+ T cell proliferation ([3H]thymidine). It is filed as cell-based, human. The settings on record: with DCs; LPS 100 ng/ml, IL-6 100 ng/ml, IFN-α 100 ng/ml. From the text: (§1) Establishing Treg cell lines and purifying natural CD4^+ CD25^+ Treg cells CD4^+ Treg clones were established from CD4^+ tumor-infiltrating lymphocytes (TIL102 and TIL164) and maintained in RPMI 1640 medium containing 10% human AB serum and recombinant IL-2 (300 IU/ml) using methods well known in the art (See, e.g., H. Y. Wang et al., Immunity 20, 107-118 (2004)). Treg clones derived from TIL102 or TIL164 cells were pooled and designated Treg102 or Treg164. Naturally occurring CD4^+ CD25^+ Treg cells were obtained by sorting CD4^+ T cell populations from fresh PBMCs after staining with anti-CD4 and anti-CD25 antibodies. To obtain optimal expansion, the OKT3 expansion method was performed using methods well known in the art (See, e.g., H. Y. Wang et al., Immunity 20, 107-118 (2004)). T cell clones were maintained at a low IL-2 concentration (300 IU/ml). Melanoma cell lines and EBV-transformed B-cell lines used in this study were cultured in RPMI 1640 medium containing 10% FCS. Human embryonic kidney (HEK) 293 and Epstein-Barr virus (EBV)-transformed B cell lines were maintained in RPMI 1640 with 10% fetal calf serum (FCS).
A. Proliferation assay with Dendritic Cells (DCs): Näive CD4^+ T cells were purified from PBMCs using microbeads (Miltenvi Biotec). DCs were generated from PBMC-derived monocytes in the presence of IL-4 (500 ng/ml) and GM-CSF (800 ng/ml) for 7 days. 1×105 näive CD4^+ T cells were cultured with regulatory T cells at different ratios (1: 0.2, 1:0.1 and 1:0.05) in 200 ul of medium containing 2×104 of DCs and anti-CD3 antibody (100 ng/ml) plus one of the following TLR ligands or cytokines: CpG-A (3 ug/ml), CpG-B (3 ug/ml), LPS (100 ng/ml), TNF.-α (20 ng/ml), IFN-α (100 ng/ml), or IL-6 (100 ng/ml). After 56 h of culture, [3H]thymidine was added at a final concentration of 1 uCi/well, followed by an additional 16 h. of culture. The incorporation of [^3H]thymidine was measured with a liquid scintillation counter, using methods well known in the art (See, e.g., M. K. Levings et al., J. Exp. Med. 196, 1335-46 (2002)). All experiments were performed in triplicate.
Two CD4^+ Treg cell lines, designated Treg102 and Treg164, were generated with a panel of Treg cell clones derived from TIL102 and TIL164 cells. […] A functional proliferation assay was employed to examine whether CpG (a TLR9 ligand), LPS (a TLR4 ligand) or the cytokines IL-6 or IFN-α could regulate the suppressive activity of antigen specific human CD4^+ Treg cells in the presence of DCs. […]

Data set [4] shares this test system. Description: Proliferation assay without DCs: Treg suppression of naive CD4+ T cell proliferation, anti-CD3-coated plates. To be noted: absence of DCs; anti-CD3-coated plates; oligonucleotides 3 ug/ml in medium. Type of data set: cell-based, human.
From the text: as §1
B. Proliferation assay without DCs: 1×10^5 näive CD4 T cells were cultured with regulatory T cells at different ratios (1: 0.2, 1:0.1 and 1:0.05) in anti-CD3 mAb-coated (2 ug/ml) 96-well plates in the presence or absence of the following TLR ligands or cytokines: CpG-A (3 ug/ml), CpG-B (3 ug/ml), LPS (100 ng/ml), TNF.-α (20 ng/ml), IFN-α (100 ng/ml), or IL-6 (100 ng/ml). After 56 h of culture, [3H]thymidine was added at a final concentration of 1 uCi/well, followed by an additional 16 h of culture. The incorporation of [^3H]thymidine was measured with a liquid scintillation counter.
Näive CD4^+ T cell proliferation experiments were performed similar to those in FIG. 1A, but in the absence of DCs. […] The reversal effect of CpG-A (SEQ ID NO: 1) contrasts with the failure of CpG-B (SEQ ID NO: 2), LPS, TNF-α, IL-6 or IFN-α to block the suppressive activity of CD4^+ Treg cells against naive CD4^+ T cells (FIG. 1B).
To further define the CpG-A (SEQ ID NO: 1) sequences responsible for the observed reversal effect, CpG-NG (SEQ ID NO: 5) and Poly-G10 (SEQ ID NO: 6), were tested for their ability to reverse the suppressive function of Treg cells. Naive CD4^+ T cells were mixed with CD4^+ Treg cells in anti-CD3 antibody-coated 96-wells with 200 μl of medium containing CpG-NG (SEQ ID NO: 5), CpG-A (SEQ ID NO: 1) or Poly-G10 (SEQ ID NO: 6). The proliferation assay was conducted as described in FIG. 1. […] For the experiments shown in FIG. 2B, naive CD4^+ T cells were mixed with CD4^+ Treg cells in anti-CD3 antibody-coated 96-wells with 200 μl of medium containing Poly-A10 (SEQ ID NO: 7), Poly-T10 (SEQ ID NO: 9) or Poly-C10 (SEQ ID NO: 8), while the Poly-G10 (SEQ ID NO: 6) oligonucleotides served as a positive control.
A series of oligonucleotides with decreasing numbers of guanosine nucleosides was constructed to determine the minimal number required for the reversal effect. For the experiments in FIG. 2C, CD4^+ T cells were mixed with CD4^+ Treg cells in anti-CD3 antibody-coated 96-wells containing medium with protected phosphorothioate linked guanosine nucleoside containing oligonucleotides of various lengths, while the unprotected five guanosines (SEQ ID NO: 10) served as a control.

Another data set concerns 586mel human tumor cells. Description: Human 586mel tumor model in Rag1-/- mice with adoptive transfer of TIL586 and Treg102 cells. The settings on record: 586mel s.c. day 0; CD8+ TIL586 plus Treg102 cells with oligonucleotide on day 3; n=6 mice per group. Type of data set: in vivo. As for the experimental part: Human 586mel tumor cells (5×106) in 100 μl of buffered saline were subcutaneously injected into Rag1^−/− mice (lacking T and B cells) or Rag 2 ^−/− γC ^−/− mice (lacking T, B and NK cells) on day 0. Tumor-specific CD8^+ TIL586 cells (2.5×107), which recognize and kill 586mel cells, were injected intravenously on day 3 with or without Treg102 cells (3×106) pretreated with Poly-G10 or Poly-T10. Tumor size was measured with calipers every 2-3 days. Tumor volume was calculated on the basis of two-dimensioned measurements. Tumor growth curves were compared with the Wilcoxon rank-sum test.
The data in FIG. 4A-B confirms that TLR8 serves as a receptor for synthetic guanosine containing oligonucleotides and natural ssRNA40 and ssRNA33 ligands derived from HIV-1 virus, and that its activation in endosomes by synthetic DNA or ssRNA ligands triggers a signaling pathway that can reverse the suppressive function of Treg cells. To study the guanosine containing oligonucleotide induced reversal of Treg cell function in vivo, a human tumor model was established by subcutaneously injecting 586mel human tumor cells into Rag1^−/− (T and B cell deficient) mice. […] Tumor volumes were measured and presented as mean±SD (n=6 mice per group). P value was determined between groups as indicated. […]

“Also recorded” adds a separate entry of the source. In the oligonucleotide strings, read from the 5' end, every base follows the letter of its sugar. An asterisk marks phosphorothioate; unmarked linkages are phosphodiester. Other units and linkages are bracketed, terminal groups are in braces. A string of capitals states the bases alone. d = 2'-deoxy (DNA)

Regarding `CC(C)Cn1cnc2c(N)nc3ccccc3c21` [Imiquimod], the “reversal of suppressive function of naturally occurring CD4+CD25+ Treg cells” value in data set [1] is listed as “little or no effect”. The “reversal of suppressive function of antigen-specific Treg cells” value in data set [2] (Treg102 and Treg164, naive T:Treg 10:1, OKT3-coated plates) is reported as “partial reversal”.

On to IL-6: cytokine, for which the “restoration of proliferative ability of naive CD4+ T cells in the presence of CD4+ Treg cells” value (“restoration … of CD4+ Treg cells” below) in data set [3] is on record as “did not restore the proliferative ability”. In addition, in data set [4], the “reversal of Treg cell-mediated suppression of naive CD4+ T cell proliferation” value (from here on “reversal … of naive CD4+ T cell proliferation”) is reported as “failure”.

In the case of “Poly-T10: control oligonucleotide with protected phosphorothioate backbone (DNA TTTTTTTTTT)”, in the data set on 586mel human tumor cells, the “tumor growth / antitumor immunity” value is given as “grew faster than in mice receiving 586mel cells alone”. For the same compound, the “reversal … of naive CD4+ T cell proliferation” value in data set [4] is “failed to reverse the suppressive function of Treg cells; also recorded: lacked the ability to reverse the suppressive activity of Treg cells”.

Regarding IFN-α, the “restoration … of CD4+ Treg cells” value in data set [3] is “did not restore the proliferative ability”. The “reversal … of naive CD4+ T cell proliferation” value in data set [4] is on record as “failure”.

As for “Poly-G5: Poly-G oligonucleotide with phosphorothioate linkages (DNA dG*dG*dG*dG*dG)”, the “reversal of suppressive function of naturally occurring CD4+CD25+ Treg cells” value in data set [1] is given as “Reversal of suppressive function; also recorded: entirely reversed; also recorded: could be reversed”.

As for lipopolysaccharide [LPS], the “restoration … of CD4+ Treg cells” value in data set [3] is listed as “did not restore the proliferative ability”. Besides, the “reversal … of naive CD4+ T cell proliferation” value in data set [4] is reported as “failure”. In addition, in data set [2] (Treg102, Treg164 or naturally occurring CD4+CD25+ Treg cells (FIG. 4A-B)), the “restoration of proliferation of naive CD4+ T cells in the presence of Treg cells” value is listed as “failed to restore the proliferation of naive CD4^+ T cells”.

The record behind these values is patent publication US20090209620A1, “Direct Reversal Of The Suppressive Function Of CD4+Regulatory T Cells Via Toll-Like Receptor 8 Signaling” (priority 2005, published 2009).
